Key:
Assay type in all cases: biochemical
[1] = target: T1, MKK6 (Homo sapiens, UniProt P52564); test: Kinase profiling MKK6; conditions: 100 micromolar inhibitor concentration, 100 is no change; for remaining activity at 100 µM: read-out: residual kinase activity, MKK6
T1 sequence (P52564 1-334): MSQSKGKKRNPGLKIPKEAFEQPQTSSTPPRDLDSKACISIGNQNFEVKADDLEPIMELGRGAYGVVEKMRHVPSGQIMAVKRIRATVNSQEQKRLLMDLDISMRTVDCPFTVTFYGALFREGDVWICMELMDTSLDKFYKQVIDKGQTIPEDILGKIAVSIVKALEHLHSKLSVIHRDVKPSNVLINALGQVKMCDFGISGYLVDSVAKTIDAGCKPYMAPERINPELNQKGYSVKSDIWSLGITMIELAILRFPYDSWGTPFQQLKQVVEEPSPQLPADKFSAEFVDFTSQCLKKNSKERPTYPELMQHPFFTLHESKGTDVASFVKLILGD
Description: (§1) Any value less that 25 is considered to be highly significant inhibition.

[2] = target: T2, p38d MAPK (Homo sapiens, UniProt O15264); test: Kinase profiling p38d MAPK; conditions: 100 micromolar inhibitor concentration, 100 is no change; for remaining activity at 100 µM: read-out: residual kinase activity, p38d MAPK
T2 sequence (O15264 1-365): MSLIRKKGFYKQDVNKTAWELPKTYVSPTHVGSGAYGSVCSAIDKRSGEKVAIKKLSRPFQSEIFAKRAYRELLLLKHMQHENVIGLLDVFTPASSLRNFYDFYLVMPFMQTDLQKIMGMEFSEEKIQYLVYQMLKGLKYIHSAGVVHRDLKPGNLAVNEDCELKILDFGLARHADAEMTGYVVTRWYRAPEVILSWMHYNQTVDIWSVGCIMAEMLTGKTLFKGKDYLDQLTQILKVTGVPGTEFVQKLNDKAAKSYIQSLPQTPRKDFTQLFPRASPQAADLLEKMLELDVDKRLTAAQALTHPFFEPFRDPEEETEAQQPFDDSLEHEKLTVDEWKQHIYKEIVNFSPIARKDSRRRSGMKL
Description: as §1

[3] = target: PKBa (Homo sapiens, UniProt P31749); test: Kinase profiling PKBa; conditions: for remaining activity at 100 µM: read-out: residual kinase activity, PKBa; for residual kinase activity, PKBa: 100 micromolar inhibitor concentration, 100 is no change
Chain of PKBa (P31749 whole entry): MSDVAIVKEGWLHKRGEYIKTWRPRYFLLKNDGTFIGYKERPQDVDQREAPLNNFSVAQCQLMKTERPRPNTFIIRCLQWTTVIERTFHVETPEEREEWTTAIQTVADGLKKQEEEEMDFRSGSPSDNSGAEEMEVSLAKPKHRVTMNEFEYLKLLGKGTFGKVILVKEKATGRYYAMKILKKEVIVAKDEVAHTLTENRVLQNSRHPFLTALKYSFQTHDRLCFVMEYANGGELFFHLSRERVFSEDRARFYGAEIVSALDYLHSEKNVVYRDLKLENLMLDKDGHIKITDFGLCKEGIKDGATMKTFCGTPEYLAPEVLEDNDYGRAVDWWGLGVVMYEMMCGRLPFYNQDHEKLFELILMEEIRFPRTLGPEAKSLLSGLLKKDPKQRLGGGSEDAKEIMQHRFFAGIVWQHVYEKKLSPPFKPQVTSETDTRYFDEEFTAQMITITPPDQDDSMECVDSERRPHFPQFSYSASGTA
Description: as §1

[4] = target: T3, SGK1 (Homo sapiens, UniProt O00141); test: Kinase profiling SGK1; conditions: 100 micromolar inhibitor concentration, 100 is no change; for remaining activity at 100 µM: read-out: residual kinase activity, SGK1
T3 sequence (O00141 1-431): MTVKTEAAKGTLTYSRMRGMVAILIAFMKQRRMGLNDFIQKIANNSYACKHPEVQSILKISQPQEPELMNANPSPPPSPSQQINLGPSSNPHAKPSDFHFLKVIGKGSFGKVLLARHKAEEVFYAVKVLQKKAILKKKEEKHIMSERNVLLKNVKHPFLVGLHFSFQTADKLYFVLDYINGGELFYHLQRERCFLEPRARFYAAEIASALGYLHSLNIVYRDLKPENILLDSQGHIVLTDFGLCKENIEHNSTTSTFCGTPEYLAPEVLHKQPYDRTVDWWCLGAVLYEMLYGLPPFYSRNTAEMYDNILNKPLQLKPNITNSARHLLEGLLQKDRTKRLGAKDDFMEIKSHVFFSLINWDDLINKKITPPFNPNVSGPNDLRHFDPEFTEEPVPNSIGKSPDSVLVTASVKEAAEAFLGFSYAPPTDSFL
Description: as §1

[5] = target: PKA (Homo sapiens, UniProt P17612); test: Kinase profiling PKA; conditions: 100 micromolar inhibitor concentration, 100 is no change; for remaining activity at 100 µM: read-out: residual kinase activity, PKA
Description: as §1

[6] = target: ROCK 2 (Homo sapiens, UniProt O75116); test: Kinase profiling ROCK 2; conditions: 100 micromolar inhibitor concentration, 100 is no change; for remaining activity at 100 µM: read-out: residual kinase activity, ROCK 2
Chain of ROCK 2 (O75116 whole entry, species assumed): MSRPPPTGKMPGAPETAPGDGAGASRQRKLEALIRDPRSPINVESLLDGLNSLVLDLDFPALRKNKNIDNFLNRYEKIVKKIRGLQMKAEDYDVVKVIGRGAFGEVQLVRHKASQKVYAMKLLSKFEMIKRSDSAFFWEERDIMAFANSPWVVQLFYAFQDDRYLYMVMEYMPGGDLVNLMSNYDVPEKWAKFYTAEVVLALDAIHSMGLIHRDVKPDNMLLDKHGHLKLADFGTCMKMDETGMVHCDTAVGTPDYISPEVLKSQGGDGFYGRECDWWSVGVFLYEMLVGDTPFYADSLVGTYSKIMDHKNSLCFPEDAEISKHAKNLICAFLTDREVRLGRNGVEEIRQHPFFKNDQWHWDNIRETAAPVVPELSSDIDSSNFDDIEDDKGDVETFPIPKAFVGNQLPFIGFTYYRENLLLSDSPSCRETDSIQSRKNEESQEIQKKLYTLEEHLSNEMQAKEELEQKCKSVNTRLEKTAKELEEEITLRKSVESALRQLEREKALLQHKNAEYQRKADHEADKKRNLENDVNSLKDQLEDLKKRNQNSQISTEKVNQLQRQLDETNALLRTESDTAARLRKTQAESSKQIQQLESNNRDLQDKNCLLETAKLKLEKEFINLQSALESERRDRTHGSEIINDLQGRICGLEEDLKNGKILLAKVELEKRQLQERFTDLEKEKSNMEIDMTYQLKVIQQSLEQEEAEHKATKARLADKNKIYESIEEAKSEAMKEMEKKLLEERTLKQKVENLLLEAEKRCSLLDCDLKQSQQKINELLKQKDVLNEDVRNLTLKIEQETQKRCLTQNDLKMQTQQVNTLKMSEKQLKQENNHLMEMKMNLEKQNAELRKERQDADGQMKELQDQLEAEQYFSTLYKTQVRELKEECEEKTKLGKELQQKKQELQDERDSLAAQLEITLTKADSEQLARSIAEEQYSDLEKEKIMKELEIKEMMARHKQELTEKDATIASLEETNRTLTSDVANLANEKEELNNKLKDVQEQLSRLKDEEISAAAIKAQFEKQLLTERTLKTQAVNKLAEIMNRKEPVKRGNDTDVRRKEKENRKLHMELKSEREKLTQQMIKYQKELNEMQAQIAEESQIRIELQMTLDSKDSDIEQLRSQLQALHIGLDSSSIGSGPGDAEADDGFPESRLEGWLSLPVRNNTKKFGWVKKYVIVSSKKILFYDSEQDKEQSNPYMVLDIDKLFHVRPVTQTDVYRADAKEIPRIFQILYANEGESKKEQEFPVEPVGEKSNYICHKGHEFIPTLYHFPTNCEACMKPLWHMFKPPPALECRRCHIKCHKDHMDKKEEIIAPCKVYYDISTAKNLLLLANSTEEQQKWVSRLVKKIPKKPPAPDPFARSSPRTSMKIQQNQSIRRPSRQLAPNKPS
Description: as §1

[7] = target: MSK1 (Homo sapiens, UniProt O75582); test: Kinase profiling MSK1; conditions: 100 micromolar inhibitor concentration, 100 is no change; for remaining activity at 100 µM: read-out: residual kinase activity, MSK1
Chain of MSK1 (O75582 whole entry, species assumed): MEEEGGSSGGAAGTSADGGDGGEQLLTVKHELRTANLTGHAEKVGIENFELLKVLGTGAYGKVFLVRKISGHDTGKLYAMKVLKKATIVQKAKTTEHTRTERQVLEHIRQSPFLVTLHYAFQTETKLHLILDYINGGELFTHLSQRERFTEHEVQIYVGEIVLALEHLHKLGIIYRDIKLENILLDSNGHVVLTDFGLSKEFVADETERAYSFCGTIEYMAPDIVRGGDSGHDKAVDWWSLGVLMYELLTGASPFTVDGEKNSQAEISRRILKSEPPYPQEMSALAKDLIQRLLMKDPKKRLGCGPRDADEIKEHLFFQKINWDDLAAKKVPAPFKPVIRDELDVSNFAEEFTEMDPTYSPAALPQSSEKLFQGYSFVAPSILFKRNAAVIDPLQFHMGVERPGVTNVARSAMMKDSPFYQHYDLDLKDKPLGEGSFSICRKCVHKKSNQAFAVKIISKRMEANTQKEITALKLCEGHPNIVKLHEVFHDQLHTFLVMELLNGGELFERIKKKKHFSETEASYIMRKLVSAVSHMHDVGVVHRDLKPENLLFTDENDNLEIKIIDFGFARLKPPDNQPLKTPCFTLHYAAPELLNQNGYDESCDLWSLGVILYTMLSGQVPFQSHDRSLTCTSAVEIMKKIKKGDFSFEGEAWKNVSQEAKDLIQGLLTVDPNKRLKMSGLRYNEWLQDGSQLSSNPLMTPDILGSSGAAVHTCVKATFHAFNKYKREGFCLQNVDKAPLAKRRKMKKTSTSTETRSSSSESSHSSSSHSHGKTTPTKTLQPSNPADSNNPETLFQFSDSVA
Description: as §1

[8] = target: T4, IRAK4 (Homo sapiens, UniProt Q9NWZ3); test: Kinase profiling IRAK4; conditions: 100 micromolar inhibitor concentration, 100 is no change; for remaining activity at 100 µM: read-out: residual kinase activity, IRAK4
T4 sequence (Q9NWZ3 1-460): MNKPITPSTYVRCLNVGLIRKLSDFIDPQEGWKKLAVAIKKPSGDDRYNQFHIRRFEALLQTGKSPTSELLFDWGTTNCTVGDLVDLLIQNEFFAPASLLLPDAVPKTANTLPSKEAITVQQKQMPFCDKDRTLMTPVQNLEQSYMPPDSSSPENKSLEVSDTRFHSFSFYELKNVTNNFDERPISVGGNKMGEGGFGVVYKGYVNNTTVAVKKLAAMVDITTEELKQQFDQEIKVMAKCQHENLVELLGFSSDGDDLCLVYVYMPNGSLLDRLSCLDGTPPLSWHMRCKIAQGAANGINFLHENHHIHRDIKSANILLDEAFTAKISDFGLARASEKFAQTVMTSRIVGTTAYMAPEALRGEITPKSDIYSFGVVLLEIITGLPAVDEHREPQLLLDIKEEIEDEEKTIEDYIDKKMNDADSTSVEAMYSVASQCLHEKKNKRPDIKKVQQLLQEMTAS
Description: as §1

[9] = target: T5, TTK (Homo sapiens, UniProt P33981); test: Kinase profiling TTK; conditions: 100 micromolar inhibitor concentration, 100 is no change; for remaining activity at 100 µM: read-out: residual kinase activity, TTK
T5 sequence (P33981 1-857): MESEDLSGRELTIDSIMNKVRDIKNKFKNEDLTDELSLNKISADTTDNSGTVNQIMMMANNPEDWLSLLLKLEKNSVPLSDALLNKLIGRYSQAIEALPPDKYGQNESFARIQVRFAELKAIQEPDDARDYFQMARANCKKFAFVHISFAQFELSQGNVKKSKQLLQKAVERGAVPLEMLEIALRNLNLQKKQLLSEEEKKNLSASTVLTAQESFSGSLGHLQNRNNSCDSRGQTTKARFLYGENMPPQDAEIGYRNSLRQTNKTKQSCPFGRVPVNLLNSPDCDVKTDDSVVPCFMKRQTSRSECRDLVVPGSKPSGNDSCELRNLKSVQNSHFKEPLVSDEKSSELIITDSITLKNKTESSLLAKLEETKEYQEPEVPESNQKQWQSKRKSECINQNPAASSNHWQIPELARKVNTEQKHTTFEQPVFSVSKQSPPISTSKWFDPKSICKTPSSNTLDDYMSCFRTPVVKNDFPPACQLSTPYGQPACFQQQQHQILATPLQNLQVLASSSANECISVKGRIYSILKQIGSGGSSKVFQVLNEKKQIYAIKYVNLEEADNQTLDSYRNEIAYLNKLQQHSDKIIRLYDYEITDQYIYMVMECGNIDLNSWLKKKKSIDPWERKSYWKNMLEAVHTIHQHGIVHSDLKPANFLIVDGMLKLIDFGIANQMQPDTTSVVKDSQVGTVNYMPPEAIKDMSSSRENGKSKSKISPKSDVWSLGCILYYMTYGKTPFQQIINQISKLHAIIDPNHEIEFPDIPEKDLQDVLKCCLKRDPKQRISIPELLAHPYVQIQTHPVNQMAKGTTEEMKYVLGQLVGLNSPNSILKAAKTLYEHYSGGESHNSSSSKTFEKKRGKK
Description: as §1

[10] = target: IGF-1R (Homo sapiens, UniProt P08069); test: Kinase profiling IGF-1R; conditions: 100 micromolar inhibitor concentration, 100 is no change; for remaining activity at 100 µM: read-out: residual kinase activity, IGF-1R
Chain of IGF-1R (P08069 31-1367, species assumed): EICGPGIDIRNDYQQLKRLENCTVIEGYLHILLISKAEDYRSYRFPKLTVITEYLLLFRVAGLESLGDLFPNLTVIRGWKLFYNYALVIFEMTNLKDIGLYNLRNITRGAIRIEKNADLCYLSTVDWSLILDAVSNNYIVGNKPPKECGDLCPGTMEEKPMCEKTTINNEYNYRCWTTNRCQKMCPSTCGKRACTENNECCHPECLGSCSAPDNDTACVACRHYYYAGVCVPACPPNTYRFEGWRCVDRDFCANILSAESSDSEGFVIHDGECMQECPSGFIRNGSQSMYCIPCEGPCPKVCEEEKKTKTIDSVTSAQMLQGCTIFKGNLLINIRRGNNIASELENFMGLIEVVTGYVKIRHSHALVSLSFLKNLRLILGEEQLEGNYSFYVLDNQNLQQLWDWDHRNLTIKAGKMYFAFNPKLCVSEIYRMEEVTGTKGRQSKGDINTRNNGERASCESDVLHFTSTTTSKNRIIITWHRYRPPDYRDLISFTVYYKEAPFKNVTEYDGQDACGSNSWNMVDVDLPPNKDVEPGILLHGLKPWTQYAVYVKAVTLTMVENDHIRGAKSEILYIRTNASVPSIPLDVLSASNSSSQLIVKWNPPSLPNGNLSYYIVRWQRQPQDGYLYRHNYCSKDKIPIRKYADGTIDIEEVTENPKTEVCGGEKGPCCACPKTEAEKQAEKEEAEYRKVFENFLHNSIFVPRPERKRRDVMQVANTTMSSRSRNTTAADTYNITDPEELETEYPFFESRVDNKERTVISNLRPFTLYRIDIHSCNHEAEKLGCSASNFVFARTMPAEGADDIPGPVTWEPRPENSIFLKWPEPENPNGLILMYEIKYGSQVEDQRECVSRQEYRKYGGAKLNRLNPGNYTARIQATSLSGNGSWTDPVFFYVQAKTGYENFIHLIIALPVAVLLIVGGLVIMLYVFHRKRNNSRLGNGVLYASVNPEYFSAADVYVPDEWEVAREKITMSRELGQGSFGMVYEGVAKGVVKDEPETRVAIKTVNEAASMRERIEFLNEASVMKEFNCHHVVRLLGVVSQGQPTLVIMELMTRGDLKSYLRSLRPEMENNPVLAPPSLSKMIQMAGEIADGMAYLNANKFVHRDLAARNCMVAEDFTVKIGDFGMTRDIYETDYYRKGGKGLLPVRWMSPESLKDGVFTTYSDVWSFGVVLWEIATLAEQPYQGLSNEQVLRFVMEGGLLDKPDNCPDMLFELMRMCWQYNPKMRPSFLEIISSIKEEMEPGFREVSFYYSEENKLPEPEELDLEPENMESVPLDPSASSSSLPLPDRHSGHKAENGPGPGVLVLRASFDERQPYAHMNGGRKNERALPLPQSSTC
Description: as §1

[11] = tested on: VEG-FR; test: Kinase profiling VEG-FR; conditions: 100 micromolar inhibitor concentration; 100 is no change
Description: as §1

CC(=O)Nc1nc2cc(C(F)(F)F)ccc2s1 [Compound 03-73]
remaining activity at 100 µM [1]: 120%
remaining activity at 100 µM [2]: 52%
remaining activity at 100 µM [3]: 106%
remaining activity at 100 µM [4]: 77%
remaining activity at 100 µM [5]: 124%
remaining activity at 100 µM [6]: 83%
remaining activity at 100 µM [7]: 91%
remaining activity at 100 µM [8]: 60%
remaining activity at 100 µM [9]: 86%
remaining activity at 100 µM [10]: 77%
residual kinase activity, VEG-FR [11]: 33

CC(=O)Nc1nc2ccccc2s1 [Compound 03-32]
residual kinase activity, MKK6 [1]: 85
residual kinase activity, p38d MAPK [2]: 80
residual kinase activity, PKBa [3]: 104
residual kinase activity, SGK1 [4]: 92
residual kinase activity, PKA [5]: 91
residual kinase activity, ROCK 2 [6]: 91
residual kinase activity, MSK1 [7]: 98
residual kinase activity, IRAK4 [8]: 65
residual kinase activity, TTK [9]: 71
residual kinase activity, IGF-1R [10]: 74
residual kinase activity, VEG-FR [11]: 66

CC(=O)Nc1nc2cc(F)ccc2s1 [Compound 03-77]
remaining activity at 100 µM [1]: 118%
remaining activity at 100 µM [2]: 76%
remaining activity at 100 µM [3]: 95%
remaining activity at 100 µM [4]: 66%
remaining activity at 100 µM [5]: 95%
remaining activity at 100 µM [6]: 37%
remaining activity at 100 µM [7]: 74%
remaining activity at 100 µM [8]: 43%
remaining activity at 100 µM [9]: 64%
remaining activity at 100 µM [10]: 58%
residual kinase activity, VEG-FR [11]: 48

O=C(Nc1nc2cc(O)ccc2s1)c1cccnc1 [Compound 03-33]
residual kinase activity, MKK6 [1]: 122
residual kinase activity, p38d MAPK [2]: 103
residual kinase activity, PKBa [3]: 100
residual kinase activity, SGK1 [4]: 86
residual kinase activity, PKA [5]: 102
residual kinase activity, ROCK 2 [6]: 53
residual kinase activity, MSK1 [7]: 92
residual kinase activity, IRAK4 [8]: 42
residual kinase activity, TTK [9]: 45
residual kinase activity, IGF-1R [10]: 50
residual kinase activity, VEG-FR [11]: 50

Reference: patent US10231954B2, “Neurodegenerative therapies” (LYTIX BIOPHARMA AS, priority 2014, dated 2019)
